Earlier results, collected in patent publication US20080292666A1, “Preparation for Preventing or Treating Calcium Deficiency Conditions In Mammals” (priority 2005, published 2008).

Experiments:
[1] = 75 g of calcium as paste, oral
[2] = for effect of oral drenches on blood Ca-concentrations: aqueous solutions or slurries, cows
[3] = tested on: parturient paresis in dairy cows; settings: 120 g calcium as calcium propionate cylinders vs 216 g as oily calcium chloride solution

Row | Compound | persistence of the increase in plasma calcium [1] | rapidity of plasma calcium increase [1] | effect of oral drenches on blood Ca-concentrations [2] | effectiveness in the prevention of milk fever [3] | rise of plasma Ca-concentrations after oral CaCl2 compared with i.v. ([2]; 50 g of Ca as CaCl2) | total amount administered in 24 h not to be exceeded to avoid severe metabolic acidosis ([2]; oral, 24 h (120 g of Ca))
1 | CCC(=O)[O-].CCC(=O)[O-].[Ca+2] [calcium propionate] | sustained for a longer period | did not increase plasma calcium as rapidly as 75° g. calcium as CaCl2 | effects lasted longer | as effective in the prevention of milk fever as was treatment with calcium chloride | – | –
2 | [Ca+2].[Cl-].[Cl-] [calcium chloride] | – | – | increased blood Ca-concentrations more quickly than did Ca-propionate | – | raised plasma Ca-concentrations to the same extent as 4° g. of Ca as CaCl2 given i.v. | ≤ 288 g
